The test system of this experiment is CEM cells HIV-1 protection, formazan growth assay. The experiment can be described thus: NCI AIDS Antiviral Assay. The settings on record: for IC50: measured here: growth of uninfected CEM cells. In outline: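 Protection of CEM cells against HIV-1 was scored from cell growth (soluble formazan) across five concentrations, with parallel uninfected cells. Lack of protection may reflect toxicity.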

Activity calls are given as the source filed them.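 Rule for the calls: active = compounds giving half or more protection of infected cells from virus-caused growth loss, again on retest; inactive = the rest.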 Where a SMILES comes first, the peptide text is derived from it. [ ]: non-standard residue; d: D form. ΔPro = O=C(O)[CH]1C=CCN1

As usually defined, the EC50 is the concentration giving half of the maximal effect. What is called IC50 is the concentration at which inhibition is half-maximal. Read a high IC50 as a need for much substance. In the case of `CC1CC(=O)N2CCCNC2=C1C#N` (stereo unspecified), the EC50 was over 200 µM and the IC50 is over 200 µM. As to `CN(/N=C(\C(=O)O)c1ccccc1)C1=NCCCCN1`, the EC50 is over 200 µM and the IC50 is over 100 µM. On the same counts, the results for `CN(C)CCS(=O)(=O)O` are over 200 µM and over 200 µM.

For `CCOC(=O)C(CC(C)C)NC(=O)C(Cc1ccc(N(CCCl)CCCl)cc1)NC(C)=O` (stereo unspecified), the EC50 is over 10.7 µM and the concentration for half-maximal inhibition (IC50) was determined as 0.132 µM.

Consider `COc1ccc(C2C(C#N)=C(S)N(C3OC(CO)C(O)C(O)C3O)C(C)=C2C(C)=O)cc1` (stereo unspecified), for which the EC50 was over 200 µM and the IC50 worked out at 89.1 µM.

Regarding `CC(=O)N1[C@H](C(=O)O)CS[C@H]1c1ccncc1`, the result was inactive.

Regarding `CC12CCC3C4CCC(=O)C(CCC(=O)O)=C4CCC3(CO1)C2` (stereo unspecified), the EC50 is over 794 µM and the IC50 is over 794 µM. In the case of `C=CCCCCC1CCC2CCC(CCCC)N12` (stereo unspecified), the EC50 is over 525 µM and the concentration for half-maximal inhibition (IC50) is over 525 µM.

In the case of `CCOc1ccc(N=NC2C(=O)N(C(=O)CC(=O)Nc3ccc(C)cc3)N=C2C)cc1` (stereo unspecified), the EC50 was over 200 µM and the IC50 was determined as 10.5 µM. The corresponding values for `O=C1C=C2C(=CCOC2O)O1` (stereo unspecified) are over 16.2 µM and 0.191 µM. In the case of `Cc1cc(=O)c2ccccc2o1`, the outcome was inactive. Still for that read-out and setting: as for `O=c1[nH]nc(Nc2ccccc2)c2nnn(Cc3ccccc3)c12`, the entry is “inactive”. As for `C/C(=N/NC(=S)Nc1cccc(Cl)c1)c1ccccn1`, the EC50 is over 0.2 µM and the IC50 is 0.0851 µM. `CCOC(=O)C(C(=O)OCC)C1(c2ccccc2)OC(=O)c2ccccc21` (stereo unspecified): the outcome was inactive. Regarding `CCCCCC[N+]1(C)CC2C3C=CC(C3)C2C1` (stereo unspecified), the EC50 is over 245 µM and the IC50 was over 100 µM.

In the case of `O=C1c2c(ccc3c2CCCC3)CC1Cc1ccc2c(c1)CCCC2` (stereo unspecified), the EC50 is over 200 µM and the IC50 is over 200 µM.

For the molecule `CCCCCCCCCCCCC1=C(OC)C(=O)c2ccc(C)nc2C1=O`, the outcome was inactive. In the case of `O=C(O)c1cc2c(cc1CC(Cc1ccc3c(c1)CCCC3)C(=O)O)CCCC2` (stereo unspecified), the EC50 was over 200 µM and the IC50 stood at 51.3 µM.

As for `COc1ccc2c(CN3CCCCC3CO)cc3cc(OC)c(OC)cc3c2c1` (stereo unspecified), the outcome was inactive. Regarding `O=Cc1c2c(cc3c1CC1(C3)Cc3cc4c(c(C=O)c3C1)CCCC4)CCCC2`, the EC50 was over 200 µM and the IC50 is 123 µM. On the same counts, the results for `CN(C)N(CCO)CCO` are over 200 µM and over 200 µM.

Consider `COc1ccc(C2(O)CCCCC2)cc1`, for which the EC50 was over 66.1 µM and the IC50 is over 66.1 µM. As to `CN=c1ss/c(=N\C(=S)N(C)C)n1C`, the outcome was inactive. `NC(Cc1cc(O)c(O)c(S(=O)(=O)c2ccccc2)c1)C(=O)O` (stereo unspecified): the result was inactive. For `CC(C)(C)C1=C(Br)C(C(C)(C)C)OP1(=O)O` (stereo unspecified), the EC50 was over 100 µM and the IC50 is over 100 µM.

As for `CC(=O)Oc1ccc2c(C)cc(=O)oc2c1`, the EC50 was over 200 µM and the concentration for half-maximal inhibition (IC50) amounted to 170 µM. The corresponding values for `CCOC(=O)c1cn(CC)c2ccc3c(c2c1=O)S(=O)(=O)C=C3` are over 200 µM and 29.5 µM. On the same counts, the results for `CC(NNC(=S)N1CCCC1)c1cccnn1` (stereo unspecified) are over 200 µM and 0.372 µM. On to `C/C(=C(/SS/C(C(=O)O)=C(/C)c1cccc(O)c1)C(=O)O)c1cccc(O)c1`, for which the EC50 was over 200 µM and the IC50 came to 135 µM.

As for `O=C(O)C1C=CCN1C(=O)C1C=CCN1C(=O)C1C=CCN1` (stereo unspecified) (H-[ΔPro]-[ΔPro]-[ΔPro]-OH; configuration not given here), the EC50 was over 200 µM and the IC50 is 166 µM. On the same counts, the results for `Cc1ccc(S(=O)(=O)OCC23CCC(C4CC42)C2CC23)cc1` (stereo unspecified) are over 100 µM and 77.6 µM. On to `NC1=NS(=O)(=O)Nc2nc(-c3ccccc3)[nH]c21`, for which the EC50 is over 20 µM and the half-maximal inhibitory concentration (IC50) is over 20 µM. In the case of `OC[C@@H](O)[C@@H](O)c1cnn(-c2ccccc2)n1`, the EC50 is over 200 µM and the IC50 is over 200 µM. For the molecule `Nc1nnnc2nc[nH]c12`, the EC50 is over 20 µM and the IC50 is 0.537 µM. The corresponding values for `Nc1ccc2nc3ccc(O)cc3nc2c1` are over 200 µM and 17 µM. On to `C/C=C1\CN2CCC34c5ccccc5N5C(=O)CCC(C1CC23)C54` (stereo unspecified), for which the EC50 was over 42.7 µM and the IC50 was over 42.7 µM. For `COc1cc2c(cc1OC)CC(=O)Nc1cc(OC)c(OC)cc1CC2`, the outcome was inactive.

Consider `CCCCn1c(C)c(C(=O)OCC)c2cc(OCc3ccc(C(=O)Nn4c(C)ccc4C)cc3)c(Br)cc21`, for which the EC50 is over 95.5 µM and the half-maximal inhibitory concentration (IC50) is over 95.5 µM. Regarding `COC(=O)Cc1c([C@@H]2Nc3ccccc3[C@H]2CC(=O)OC)[nH]c2ccccc12`, the EC50 is over 200 µM and the IC50 was determined as 30.2 µM.

Turning to `CCOc1ccccc1NC(=O)CC(C(=O)OC)C(=O)C(=O)OC` (stereo unspecified), the EC50 was over 537 µM and the IC50 is over 537 µM. For the molecule `CNC1C(OC2C(OC3C(O)C(O)C(N=C(N)N)C(O)C3N=C(N)N)OC(C)C2(O)C=O)OC(CO)C(OC2OC(CO)C(O)C(O)C2O)C1O` (stereo unspecified), the outcome was inactive. With `O=S(O)CCCCSSCCCCSSCCCCS(=O)O`, the outcome was inactive. `Cn1c(CNc2ccc(-c3n[nH]c(=S)n3C)cc2)n[nH]c1=S`: the EC50 is over 200 µM and the IC50 was over 200 µM. Take `Cc1c2ccccc2nc(CSCC(O)CO)[n+]1[O-]` (stereo unspecified): the EC50 was over 200 µM and the IC50 was over 200 µM. For `C=C1C(=O)OCC2C(C(=O)O)=CC3C(C)C(C)=CC123` (stereo unspecified), the EC50 is over 692 µM and the IC50 was determined as 11.2 µM. With `NC(N)=NS(=O)(=O)c1ccc(Nc2c3ccccc3nc3c(C(=O)N4CCN(CCO)CC4)cccc23)cc1`, the EC50 was over 40.7 µM and the IC50 is over 40.7 µM. In the case of `O=C(CC(=O)Nc1cccc(C(=O)O)c1)Nc1cccc(C(=O)O)c1`, the EC50 was over 200 µM and the IC50 was over 200 µM. With `COc1cc2c(cc1OC)C(=O)Cc1ccc3c(c1CNCC2)OCO3`, the EC50 was over 141 µM and the IC50 was over 141 µM.

For the molecule `CCOC(=O)c1c(NC(=S)NCc2ccccc2)sc2c1CCN(C)C2`, the EC50 is over 151 µM and the IC50 came out at 95.5 µM. Consider `CC1=N/C(=C\c2cccc(F)c2)C(=O)O1`, for which the EC50 was over 126 µM and the 50% inhibitory concentration (IC50) is over 126 µM.

In the case of `CCOC(=O)c1c(O)cn2c1[nH]c1cccc3cccc2c31`, the EC50 was over 100 µM and the half-maximal inhibitory concentration (IC50) was 25.7 µM. For `O=c1[nH]c2c(c(=O)[nH]1)SSC2`, the EC50 was over 200 µM and the IC50 was found to be 0.631 µM. The corresponding values for `CCOC(=O)/C(SC#N)=C(/N)N1CCCC1` are over 200 µM and over 200 µM. Take `CN(/N=C/c1ccc(Cl)c(Cl)c1)C1=NCCCCN1`: the EC50 was over 200 µM and the IC50 was found to be 26.3 µM. The corresponding values for `COc1ccc2nc3ccc(OC)cc3c(SCCO)c2c1` are over 200 µM and 8.51 µM. On the same counts, the results for `C[C@@]1(CI)OC(=O)N2CCC[C@H]21` are over 891 µM and over 891 µM.

With `COC(=O)C1=CN(C2CCCCC2)C2(c3ccccc3)c3ccccc3C(=O)OC(=O)C12` (stereo unspecified), the EC50 was 132 µM and the IC50 is over 200 µM. Turning to `O=C(O)CCC1C(=O)C2CCN1CC2` (stereo unspecified), the EC50 was over 200 µM and the IC50 was over 200 µM. `COc1ccc(-c2n[nH]c3nc4ccccc4n3c2=O)cc1`: the EC50 is over 200 µM and the half-inhibitory concentration (IC50) was over 200 µM.

As to `CC1=Nc2cc(C(=O)c3ccccc3)ccc2N=C(c2c(O)c3ccc4ccccc4c3oc2=O)C1`, the EC50 was over 20 µM and the IC50 was over 20 µM. In the case of `C/C(=C\c1ccccn1)c1ccccn1`, the EC50 was over 200 µM and the IC50 is over 200 µM.

As to `CCc1cc2c(c3c1CCC3=O)CC1(Cc3ccc(C)cc3C1)C2` (stereo unspecified), the EC50 is over 200 µM and the IC50 came out at 135 µM. As for `Clc1ccc(-c2nnc(C34CC5CC(CC(C5)C3)C4)o2)cc1`, the EC50 was over 200 µM and the IC50 was over 200 µM. With `C=C1C(=O)OC2CC(C)C(/C=C/C(C)=O)=CCC12` (stereo unspecified), the EC50 is over 363 µM and the IC50 was found to be 56.2 µM. The corresponding values for `COc1cc(C(c2c(O)c3ccccc3oc2=O)c2c(O)c3ccccc3oc2=O)ccc1O` are over 200 µM and 56.2 µM. For `CCC(C)C(N)C(=O)NCC(=O)NC(CCCN=C(N)N)C(=O)NC(CC(N)=O)C(=O)NC(CC(C)C)C(=O)NC(CC(C)C)C(=O)NC(C(=O)NC(CCC(N)=O)C(=O)NC(C(=O)NCC(=O)O)C(C)CC)C(C)O` (stereo unspecified) (H-IGRNLLTQIG-OH; configuration not given here), the result was inactive. Take `CC1CCc2c(sc3ncnc(N/N=C/c4ccc(Cl)cc4)c23)C1` (stereo unspecified): the EC50 was over 14.5 µM and the IC50 was over 14.5 µM.

With `Nc1nc(N)c(N=O)c(Nc2ccccc2)n1`, the EC50 is over 200 µM and the IC50 is 33.9 µM. On the same counts, the results for `O=C1CS(=O)(=O)C(c2ccc(F)cc2)N1N1C(=O)CS(=O)(=O)C1c1ccc(F)cc1` (stereo unspecified) are over 200 µM and over 200 µM. In the case of `CC(=O)N1C(c2[nH]c3ccccc3c2-c2ccccc2)CCN1c1ccccc1` (stereo unspecified), the EC50 is over 200 µM and the IC50 is 74.1 µM.

As to `COC1/C=C\OC2(C)Oc3c(C)c(O)c4c(O)c(c(CN(C)C)c(O)c4c3C2=O)NC(=O)/C(C)=C\C=C/C(C)C(O)C(C)C(O)C(C)C(OC(C)=O)C1C` (stereo unspecified), the result was inactive. For `O=C(c1cccs1)N(C(=S)N1CCN(c2ccccn2)CC1)C1CCCCC1`, the EC50 was over 12.6 µM and the IC50 came to 12.3 µM. For `C=CCC(NCc1ccccc1)[C@H](OCc1ccccc1)[C@@H]1COC(C)(C)O1` (stereo partly specified), the EC50 is over 200 µM and the IC50 is over 200 µM.

With `O=C1OC(N=P(c2ccccc2)(c2ccccc2)c2ccccc2)C(N=P(c2ccccc2)(c2ccccc2)c2ccccc2)=C1Cl` (stereo unspecified), the EC50 is over 20 µM and the IC50 amounted to 18.2 µM. On to `CC(C)(C)OC(=O)N(CCCN)CCCCN`, for which the EC50 is over 200 µM.

The values are drawn from PubChem BioAssay AID179 (DTP/NCI, 2004).
